Reference: patent USRE32347E, “Hypocalcaemic peptides and process for their manufacture” (Ciba-Geigy Corp., priority 1984, dated 1987)
Ends that are not written are not given here.

Experiments:
[1] = test system: calcium level of the blood; experiment: calcium level of the blood in patients with increased bone turn over; format: in vivo, human; conditions: intravenous, intramuscular or subcutaneous injection of 0.01 to 5 mg, e.g. in 0.1 molar acetate buffer of pH 4.6
[2] = test system: blood calcium level; experiment: rat test described by Kumar et al, J. Endocrinology 33, page 470 [1965] (MRC units); format: in vivo; conditions: for result in the rat test according to Kumar et al., in words: compared with HT-C2 / parent peptide
Description: It lowers the plasma calcium level and plasma phosphate level of the blood of mammals, as can be shown by tests on rats weighing 50 to 150 g. […] It may therefore be used for the treatment of hypercalcaemiae and of bone diseases such as Paget's disease or osteoporosis.

Human calcitonin
calcium level of the blood [1]: lowers

HT-C11: active component of human calcitonin from fractions with K=4.0 (CGNLSTCMLGTYTQDFNKFHTFPQTAIGVGAP; ends and bridges not checked; cysteine pairing not given here; UniProt P01258 85-116, looked up)
activity ([2]; in the rat, per mg of peptide): 100-200 MRC units per mg

HT-C1: the dimer of HT-C2; active component of human calcitonin (CGNLSTCMLGTYTQDFNKFHTFPQTAIGVGAP; ends and bridges not checked; also: dimer; UniProt P01258 85-116, looked up)
result in the rat test according to Kumar et al., in words [2]: about as good results as the product obtained in Example 1 (HT-C2)

HT-C1 sulfoxide: sulfoxide obtained from HT-C1 with 5% hydrogenperoxide (CGNLSTCMLGTYTQDFNKFHTFPQTAIGVGAP; ends and bridges not checked; also: dimer (HT-C1, dimer of HT-C2); UniProt P01258 85-116, looked up)
result in the rat test according to Kumar et al., in words [2]: equally active
